Reference: the NIST ThermoML archive (doi:10.1016/j.jct.2007.01.009)

Assay: xn = mol fraction of the nth substance listed
Settings: 101 kPa, Liquid, Pycnometric method

CCCCC(O)CO (stereo not drawn) [1,2-hexanediol] + O
mass density [kg/m3]
Settings | 283.15 K | 288.15 K | 293.15 K | 298.15 K | 303.15 K | 308.15 K
x1 = 0.0009 | 999.77 | 999.33 | 998.26 | 997.06 | 995.65 | 993.92
x1 = 0.0018 | 999.85 | 999.35 | 998.28 | 997.06 | 995.66 | 993.92
x1 = 0.0036 | 1000.05 | 999.43 | 998.39 | 997.13 | 995.76 | 993.98
x1 = 0.0055 | 1000.31 | 999.57 | 998.54 | 997.24 | 995.78 | 994.13
x1 = 0.0077 | 1000.69 | 999.81 | 998.75 | 997.43 | 995.64 | 994.227
x1 = 0.009 | 1000.93 | 999.97 | 998.86 | 997.49 | 995.53 | 994.278
x1 = 0.0106 | 1001.22 | 1000.16 | 998.97 | 997.52 | 995.37 | 994.276
x1 = 0.0124 | 1001.49 | 1000.33 | 999.03 | 997.47 | 995.17 | 994.141
x1 = 0.0143 | 1001.65 | 1000.41 | 999.01 | 997.32 | 994.93 | 993.817
x1 = 0.016 | 1001.69 | 1000.38 | 998.91 | 997.13 | 994.7 | 993.395
x1 = 0.0178 | 1001.64 | 1000.25 | 998.73 | 996.87 | 994.45 | 992.869
x1 = 0.0351 | 999.52 | 997.75 | 995.76 | 993.77 | 991.54 | 988.24
x1 = 0.0672 | 995.27 | 993.06 | 990.72 | 988.37 | 985.8 | 981.847
x1 = 0.0968 | 991.84 | 989.37 | 986.7 | 983.93 | 981.37 | 977.569
x1 = 0.1119 | 990.47 | 987.91 | 985.24 | 982.11 | 979.56 | 975.746

CC(O)CCC(C)O (stereo not drawn) [2,5-hexanediol] + O
mass density [kg/m3]
Settings | 283.15 K | 288.15 K | 293.15 K | 298.15 K | 303.15 K | 308.15 K
x1 = 0.0008 | 999.67 | 999.06 | 998.13 | 996.94 | 995.52 | 993.87
x1 = 0.002 | 999.6 | 998.98 | 998.04 | 996.84 | 995.4 | 993.73
x1 = 0.0037 | 999.53 | 998.88 | 997.94 | 996.73 | 995.27 | 993.58
x1 = 0.0073 | 999.48 | 998.82 | 997.86 | 996.6 | 995.14 | 993.42
x1 = 0.009 | 999.54 | 998.85 | 997.84 | 996.58 | 995.09 | 993.35
x1 = 0.0102 | 999.61 | 998.88 | 997.84 | 996.58 | 995.07 | 993.31
x1 = 0.0123 | 999.75 | 998.97 | 997.89 | 996.6 | 995.05 | 993.25
x1 = 0.0142 | 999.92 | 999.08 | 997.96 | 996.64 | 995.05 | 993.21
x1 = 0.0159 | 1000.08 | 999.2 | 998.04 | 996.68 | 995.06 | 993.19
x1 = 0.0177 | 1000.27 | 999.34 | 998.14 | 996.74 | 995.07 | 993.17
x1 = 0.0263 | 1001.32 | 1000.14 | 998.73 | 997.13 | 995.23 | 993.17
x1 = 0.0353 | 1002.49 | 1001.07 | 999.39 | 997.56 | 995.43 | 993.19
x1 = 0.0516 | 1004.41 | 1002.55 | 1000.35 | 998.09 | 995.59 | 993
x1 = 0.0672 | 1005.71 | 1003.37 | 1000.75 | 998.16 | 995.35 | 992.44
x1 = 0.0688 | 1005.83 | 1003.42 | 1000.76 | 998.14 | 995.31 | 992.36
x1 = 0.0821 | 1006.35 | 1003.53 | 1000.63 | 997.8 | 994.75 | 991.62
x1 = 0.098 | 1006.33 | 1003.14 | 1000.02 | 996.97 | 993.8 | 990.55
x1 = 0.112 | 1005.71 | 1002.53 | 999.19 | 996.16 | 992.78 | 989.51
